Test results: patent US12583825B2, “Benzo[h]quinazolin-4-amine and thieno[3,2-h]quinazolin-4-amine derivatives for the treatment of cancer” (Redona Therapeutics, Inc., priority 2020, dated 2026)
“Also recorded” adds a separate entry of the source.

Columns and labels:
[1] = target: T1, recombinant human CLK3 (Homo sapiens, UniProt P49761); test: CLK3 kinase assay (LANCE Ultra); type: biochemical; conditions: 0.5 nM CLK3, 300 μM ATP, 3 hours at 30° C.
T1 construct: purchased Thermo Fisher Scientific PV3826
How it was run: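 Recombinant human CLK3 (0.5 nM) phosphorylating ULight-CREBtide (50 nM) with 300 μM ATP for 3 h at 30 °C; stopped with EDTA, detected by LANCE Ultra TR-FRET using Eu-anti-phospho-CREB antibody (2 nM, 1 h). IC50 from sigmoidal 4-parameter fit.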

[2] = tested on: CAL-51 triple-negative breast cancer xenograft; test: CAL-51 triple-negative breast cancer mouse xenograft model; conditions: for tumor volumes smaller compared to the vehicle-treated group: day 21, female NCG mice; for tumor volumes compared with vehicle-treated animals (one-way ANOVA, P<0.05): day 21
Method: A pair match was performed when tumors reached an average volume of 100-150 mm^3 to distribute animals into treatment groups (n=8/group), and treatment of the respective groups was initiated. Tumor volumes (expressed in mm^3) were measured twice weekly using a caliper on days 1, 3, 7, 10, 14, 17 and 21 of the treatment period.
To this end, the CAL-51 triple-negative breast cancer xenograft model was used, in which the tumor cells are injected subcutaneously into the flanks of immunodeficient NCG mice (lack functional/mature T, B, and NK cells, and have reduced macrophage and dendritic cell function). […] CAL-51 cells were harvested when they were growing exponentially.
Female NCG mice were used for the study at 8-12 weeks of age (Charles River Laboratories). Mice were inoculated subcutaneously in the flank region with 1×10^7 CAL-51 cells in 50% Matrigel™ in a final injection volume of 0.1 mL/mouse. Once tumors reached an average size of 100-150 mm^3, a pair match was carried out to distribute mice to the different treatment groups.
Tumor volumes (expressed in mm^3) were measured in two dimensions using a caliper on days 1, 3, 7, 10, 14, 17 and 21 of the treatment period. […] Results represent mean values±SEM. Tumor volumes at the conclusion of the study were analyzed by one-way ANOVA analysis to compare treatment groups to the vehicle group. The significance level was set to P<0.05. Calculations were conducted using GraphPad™ Prism version 9.

[3] = tested on: phospho-SRSF6 levels in MDA-MB-468 cells; test: Inhibition of phospho-SRSF6 levels in MDA-MB-468 cells (Western blot); type: cell-based; conditions: Homo sapiens, 100 nM, 2 hours, normalized by GAPDH, read-out: % Intensity of p-SRSF6 signal at 100 nM compared to DMSO control
Method: FIG. 1: FIG. 1 provides a representative Western blot showing reduction of phosphorylated-SRSF6 (P-SRSF6) in MDA-MB 468 cells by compounds of the invention. GAPDH was probed for by Western blotting to control for equal protein loading and for normalization of samples. The numbers below the blots show percent intensity of P-SRSF6 signal at 100 nM compared to DMSO control.
Assessment of Inhibition of Phospho-SRSF6 Levels in MDA-MB-468 Cells
MDA-MB-468 cells (ATCC, HTB-132) were cultured in DMEM (BioConcept cat. no. 1-26F03) supplemented with 10% FBS (Sigma cat. no. F9665), 1% Na-pyruvate (Sigma cat. no. S8636), 1% Penicillin-Streptomycin (BioConcept cat. no. 4-01F00-H). When cells reached a density of 70% in 6-well plates (TPP cat. no. 92006), they were treated either with the test compound vehicle DMSO, or with experimental compounds at a final concentration of 100 nM for 2 hours. Thereafter, the culture medium was removed and cells were collected by scraping in Lysis Buffer (20 mM Tris HCl pH7.5, 150 mM NaCl, 1 mM EGTA, 1 mM EDTA, 1% Triton and 1% NP-40) containing protease and phosphatase inhibitors (Halt™ Protease&Phosphatase inhibitor cocktail 100× ThermoScientific cat. no. 1861281) and 1 mM PMSF (Fluka cat. no. 93482). Cleared lysates were stored in Eppendorf tubes at −80° C. until use, and protein concentration in lysates was determined using Pierce 660 nm Protein Assay Reagent (ThermoScientific cat. no. 22660). 20 μg proteins were diluted in 4× Laemmli buffer (Biorad cat. no. 161-0747) containing 10% beta-mercaptoethanol, separated by SDS-PAGE using 10% gels, and then transferred to PVDF membranes (Trans Blot Turbo Transfer Pack BioRad cat. no. 1704156) by Trans-Blot® Turbo™ System semidry blotting methodology (BioRad). Primary antibodies were incubated in TBS-0.1% Tween-20 buffer containing 3% BSA Bovine Albumin Fr.V (Millipore cat. no. 81-053-3) overnight at 4° C. The following primary antibodies were used: Mouse anti-phosphoepitope SR proteins clone 1H4 (Millipore cat. no. MABE50) diluted 1:5000, and rabbit anti-GAPDH clone 14C10 (Cell Signaling cat. no. 2118S) to control for equal protein loading, diluted 1:2000. HRP-conjugated secondary antibodies were incubated one hour at room temperature diluted 1:5000 in TBS-0.1% Tween-20 buffer containing 5% nonfat-dried bovine milk (Sigma cat. no. M7409). The following secondary antibodies were used: Goat anti-mouse-HRP (Jackson cat. no. 115-035-146) and goat anti-rabbit-HRP (Jackson cat. no. 111-035-144). Membranes were incubated with ECL Prime Western Blot Detection Reagent (Amersham cat. no. RPN2236) to detect specific signals using Fusion SOLO S device (Vilber Lourmat). Pixel intensity of the phopsho-SRSF6 (MW 55 kDa in reference to markers) and GAPDH (MW 37 kDa) signals in the Western blots were determined using Evolution-Capt image analysis software (v17.01, Vilber Lourmat). DMSO control was used to set the phospho-SRSF6 signal at baseline, phospho-SRSF6 signals for each sample were normalized by the respective GAPDH signals and percent intensity of P-SRSF6 signal at 100 nM compound compared to DMSO control was calculated (see FIG. 1).

[4] = tested on: MDA-MB-231 cells; test: MDA-MB-231 proliferation assay; type: cell-based; conditions: Homo sapiens, 72 hours, YO-PRO-1 readout
How it was run: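 Cells seeded at 750/well in DMEM with 10% FBS, treated 72 h at 37 °C, 0.5% DMSO final. Cell number read by YO-PRO-1 fluorescence (485/530 nm), normalised to DMSO (100%) and time-of-addition cells (0%); 4-parameter logistic fit with maximum fixed at 100%.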

T1 sequence (P49761 whole entry): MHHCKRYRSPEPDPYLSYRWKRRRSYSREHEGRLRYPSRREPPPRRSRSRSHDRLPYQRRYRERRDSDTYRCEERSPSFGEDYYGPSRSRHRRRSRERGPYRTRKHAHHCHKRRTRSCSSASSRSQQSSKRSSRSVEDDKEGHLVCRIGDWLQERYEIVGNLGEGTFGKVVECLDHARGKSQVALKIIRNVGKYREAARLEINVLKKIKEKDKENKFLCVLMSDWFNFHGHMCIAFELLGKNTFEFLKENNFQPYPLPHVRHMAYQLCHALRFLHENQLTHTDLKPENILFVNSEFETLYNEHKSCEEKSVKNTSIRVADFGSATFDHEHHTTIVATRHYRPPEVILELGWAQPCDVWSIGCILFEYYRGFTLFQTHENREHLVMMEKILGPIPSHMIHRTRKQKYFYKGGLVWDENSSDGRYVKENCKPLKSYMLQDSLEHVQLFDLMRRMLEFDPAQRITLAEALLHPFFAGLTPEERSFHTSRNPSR

Row | IC50 [1] [nM] | GI50 [4] [nM] | SMILES | tumor volumes smaller compared to the vehicle-treated group ([2]; 25 mg/kg daily orally) [%] | tumor volumes smaller compared to the vehicle-treated group ([2]; 60 mg/kg three times a week orally) [%] | tumor volumes compared with vehicle-treated animals (one-way ANOVA, P<0.05) ([2]; 60 mg/kg thrice weekly) | tumor volumes smaller compared to the vehicle-treated group ([2]; 85 mg/kg twice a week orally) [%] | tumor volumes compared with vehicle-treated animals (one-way ANOVA, P<0.05) ([2]; 85 mg/kg twice weekly) | tolerability, as evidenced by body weight assessments ([2]; oral 25, 60 or 85 mg/kg schedules, days 1-21, female NCG mice) | activity at 0.1 µM [3] [%]
1 | 21.7 | > 2000 | CO/N=C1\c2cc(OC)ccc2-c2ncnc(N)c2C1(C)C [Example 40, (6Z)-8-methoxy-6-methoxyimino-5,5-dimethyl-benzo[h]quinazolin-4-amine] |  |  |  |  |  |  | 45
2 | 9.1 | 630 | CO/N=C1\c2cc(CC3CCNCC3)ccc2-c2ncnc(N)c2C1(C)C [Example 70, (6Z)-6-methoxyimino-5,5-dimethyl-8-(4-piperidylmethyl)benzo[h]quinazolin-4-amine] |  |  |  |  |  |  | 34
3 | 4.8 | 255 | CO/N=C1\c2cc(C[C@H]3CC[C@H](N)CC3)ccc2-c2ncnc(N)c2C1(C)C [Example 74, (6Z)-8-[(trans-4-aminocyclohexyl)methyl]-6-methoxyimino-5,5-dimethyl-benzo[h]quinazolin-4-amine] |  |  |  |  |  |  | 28
4 | 40.7 | 971 | C[C@H](O)CO/N=C1\c2cc(O[C@H]3CC[C@H](N)CC3)ccc2-c2ncnc(N)c2C1(C)C [Example 79, (2S)-1-[(Z)-[4-amino-8-(trans-4-aminocyclohexoxy)-5,5-dimethyl-benzo[h]quinazolin-6-ylidene]amino]oxypropan-2-ol] |  |  |  |  |  |  | 34
5 | 9.7 | 98.5 | COCCO/N=C1\c2cc(O[C@H]3CC[C@@H](N)CC3)ccc2-c2ncnc(N)c2C1(C)C [Example 82, (6Z)-8-(cis-4-aminocyclohexoxy)-6-(2-methoxyethoxyimino)-5,5-dimethyl-benzo[h]quinazolin-4-amine] |  |  |  |  |  |  | 15
6 | 4.9 | 96.2 | CC1(C)/C(=N/OCCC#N)c2cc(O[C@H]3CC[C@@H](N)CC3)ccc2-c2ncnc(N)c21 [Example 83, 3-[(Z)-[4-amino-8-(cis-4-aminocyclohexoxy)-5,5-dimethyl-benzo[h]quinazolin-6-ylidene]amino]oxypropanenitrile] |  |  |  |  |  |  | 9
7 | 18.7 | 255 | CC1(C)/C(=N/OCCO)c2cc(O[C@H]3CC[C@@H](N)CC3)ccc2-c2ncnc(N)c21 [Example 87, 2-[(Z)-[4-amino-8-(cis-4-aminocyclohexoxy)-5,5-dimethyl-benzo[h]quinazolin-6-ylidene]amino]oxyethanol] |  |  |  |  |  |  | 10
8 | 5.8 | 27.6 | COCCO/N=C1\c2cc(O[C@H]3CC[C@H](N)CC3)ccc2-c2ncnc(N)c2C12CCCC2 [Example 99, (6Z)-8-(trans-4-aminocyclohexoxy)-6-(2-methoxyethoxyimino)spiro[benzo[h]quinazoline-5,1′-cyclopentane]-4-amine] |  |  |  |  |  |  | 17

More lines, now with the values behind:

Row | SMILES | IC50 [1] [nM] | GI50 [4] [nM] | tumor volumes smaller compared to the vehicle-treated group ([2]; 25 mg/kg daily orally) [%] | tumor volumes smaller compared to the vehicle-treated group ([2]; 60 mg/kg three times a week orally) [%] | tumor volumes compared with vehicle-treated animals (one-way ANOVA, P<0.05) ([2]; 60 mg/kg thrice weekly) | tumor volumes smaller compared to the vehicle-treated group ([2]; 85 mg/kg twice a week orally) [%] | tumor volumes compared with vehicle-treated animals (one-way ANOVA, P<0.05) ([2]; 85 mg/kg twice weekly) | tolerability, as evidenced by body weight assessments ([2]; oral 25, 60 or 85 mg/kg schedules, days 1-21, female NCG mice) | activity at 0.1 µM [3] [%]
9 | COCCO/N=C1\c2cc(O[C@H]3CC[C@H](N)CC3)ccc2-c2ncnc(N)c2C1(C)C [Example 29, (6Z)-8-(trans-4-aminocyclohexoxy)-6-(2-methoxyethoxyimino)-5,5-dimethyl-benzo[h]quinazolin-4-amine] | 15.4 | 378 | 41.8 | 42.7 | significant; also recorded: significantly smaller | 46.8 | significant; also recorded: significantly smaller | well tolerated | 12
10 | COCCN1C[C@@H](CO/N=C2\c3cc(Br)ccc3-c3ncnc(N)c3C2(C)C)OC1=O [Example 90, (5S)-5-[[(Z)-(4-amino-8-bromo-5,5-dimethyl-benzo[h]quinazolin-6-ylidene)amino]oxymethyl]-3-(2-methoxyethyl)oxazolidin-2-one] | 9.37 | 863 |  |  |  |  |  |  | 29
11 | CC1(C)/C(=N/OC[C@@H]2CN(CCO)C(=O)O2)c2cc(Br)ccc2-c2ncnc(N)c21 [Example 91, (5S)-5-[[(Z)-(4-amino-8-bromo-5,5-dimethyl-benzo[h]quinazolin-6-ylidene)amino]oxymethyl]-3-(2-hydroxyethyl)oxazolidin-2-one] | 5.1 | 459 |  |  |  |  |  |  | 15
12 | CC1(C)/C(=N/OC[C@@H]2CNC(=O)O2)c2cc(I)ccc2-c2ncnc(N)c21 [Example 93, (5S)-5-[[(Z)-(4-amino-8-iodo-5,5-dimethyl-benzo[h]quinazolin-6-ylidene)amino]oxymethyl]oxazolidin-2-one] | 6.2 | 240 |  |  |  |  |  |  | 19
13 | CC1(C)/C(=N/OC[C@@H]2CN(CCO)C(=O)O2)c2cc(I)ccc2-c2ncnc(N)c21 [Example 97, (5S)-5-[[(Z)-(4-amino-8-iodo-5,5-dimethyl-benzo[h]quinazolin-6-ylidene)amino]oxymethyl]-3-(2-hydroxyethyl)oxazolidin-2-one] | 1.7 | 158 |  |  |  |  |  |  | 21
14 | N#CCCO/N=C1\c2cc(O[C@H]3CC[C@@H](N)CC3)ccc2-c2ncnc(N)c2C12CCCC2 [Example 101, 3-[(Z)-[4-amino-8-(cis-4-aminocyclohexoxy)spiro[benzo[h]quinazoline-5,1′-cyclopentane]-6-ylidene]amino]oxypropanenitrile] | 1.2 | 4.5 |  |  |  |  |  |  | 8
15 | N#CCCO/N=C1\c2cc(O[C@H]3CC[C@H](N)CC3)ccc2-c2ncnc(N)c2C12CCCC2 [Example 102, 3-[(Z)-[4-amino-8-(trans-4-aminocyclohexoxy)spiro[benzo[h]quinazoline-5,1′-cyclopentane]-6-ylidene]amino]oxypropanenitrile] | 2.9 | 10.1 |  |  |  |  |  |  | 7
16 | CC(F)(F)CCO/N=C1\c2cc(O[C@H]3CC[C@@H](N)CC3)ccc2-c2ncnc(N)c2C1(C)C [Example 115, (6Z)-8-(cis-4-aminocyclohexoxy)-6-(3,3-difluorobutoxyimino)-5,5-dimethyl-benzo[h]quinazolin-4-amine] | 19.4 | 102 |  |  |  |  |  |  | 17
